Measurements as given in patent publication US8080529B2, “Macrolides with anti-inflammatory activity” (Glaxo Group Limited, priority 2005, dated 2011).
Where two headings read alike, the source gives them in different places.

Columns and labels:
TNF-α [1] = assay: Inhibition of TNF-α production by stimulated human peripheral blood leukocytes in vitro; type: cell-based; conditions: Homo sapiens, Leukocyte, read-out: Percentage of inhibition of TNF-α production
In short: (§1)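 Values are percentage inhibition of cytokine release versus stimulated leukocytes lacking compound. Human blood leukocytes received 50 μM or 10 μM compound for 2 h before overnight LPS, PMA or zymosan stimulation, and supernatants were assayed by ELISA.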

IL-6 = assay: Inhibition of IL-6 production by stimulated human peripheral blood leukocytes in vitro; type: cell-based; conditions: Homo sapiens, Leukocyte, read-out: Percentage of inhibition of IL-6 production
In short: as §1

A549 = assay: Cytotoxicity assay (MTT), A549 cell line; type: cell-based; conditions: 24 h
In short: (§2)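 Viability was read as MTT-formazan absorbance at 490 nm after 0.5-2 h with reagent. This followed 24 h compound exposure (50 μM, 12.5 μM) at 37° C in RPM medium. Result expressed as OD490 treated over untreated cells ×100.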

IL-8 = assay: Inhibition of IL-8 production by stimulated human peripheral blood leukocytes in vitro; type: cell-based; conditions: Homo sapiens, Leukocyte, read-out: Percentage of inhibition of IL-8 production
In short: as §1

[2] = system: human peripheral blood mononuclear cells (PBMC); assay: Effects on human T-cell proliferation in vitro (3H-thymidine incorporation); type: cell-based; conditions: Homo sapiens, PBMC, read-out: Percentage of inhibition of proliferation of stimulated PBMC
In short: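 Proliferation of human peripheral blood mononuclear cells (PBMC) was assessed in the presence of test compounds. During the final 18 h of culture each well received 1 μCi of ^3H-thymidine. Cells were then collected onto a 96-well filter with a multiple cell harvester, and ^3H-thymidine incorporation was counted on a TopCount NXT to give percentage inhibition of proliferation.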

TNF-α [3] = assay: Lipopolysaccharide induced TNF-α production in Balb/cJ mice; type: in vivo; conditions: Mus musculus, ip, 1.5 h; 10 mg/kg intraperitoneally, 30 min before LPS; 90 min after LPS; read-out: % inhibition of TNF-α production (plasma)
IL-1α = assay: Inhibition of IL-1 production by stimulated human peripheral blood leukocytes in vitro; type: cell-based; conditions: Homo sapiens, Leukocyte, read-out: Percentage of inhibition of IL-1α production
Hep G2 = assay: Cytotoxicity assay (MTT), Hep G2 cell line; type: cell-based; conditions: 24 h
In short: as §2

| SMILES | inhibition at 10 µM (TNF-α [1]; LPS-stimulated PBL) | inhibition at 10 µM (TNF-α [1]; PMA-stimulated PBL) | inhibition at 10 µM (TNF-α [1]; zymosan-stimulated PBL) | inhibition at 50 µM (TNF-α [1]; LPS-stimulated PBL) | inhibition at 50 µM (TNF-α [1]; PMA-stimulated PBL) | inhibition at 50 µM (TNF-α [1]; zymosan-stimulated PBL) | inhibition at 10 µM (IL-6; LPS-stimulated PBL) | inhibition at 10 µM (IL-6; PMA-stimulated PBL) | inhibition at 10 µM (IL-6; zymosan-stimulated PBL) | inhibition at 50 µM (IL-6; LPS-stimulated PBL) | inhibition at 50 µM (IL-6; PMA-stimulated PBL) | inhibition at 50 µM (IL-6; zymosan-stimulated PBL) | Percentage of inhibition of cell growth (A549; 12.5 μM) | Percentage of inhibition of cell growth (A549; 50 μM) | inhibition at 10 µM (IL-8; LPS-stimulated PBL) | inhibition at 10 µM (IL-8; PMA-stimulated PBL) | inhibition at 10 µM (IL-8; zymosan-stimulated PBL) | inhibition at 50 µM (IL-8; LPS-stimulated PBL) | inhibition at 50 µM (IL-8; PMA-stimulated PBL) | inhibition at 50 µM (IL-8; zymosan-stimulated PBL) | also measured |
| --- | --- | --- | --- | --- | --- | --- | --- | --- | --- | --- | --- | --- | --- | --- | --- | --- | --- | --- | --- | --- | --- |
| CC[C@H]1OC(=O)[C@H](C)[C@@H](O[C@H]2C[C@@](C)(OC)[C@@H](O)[C@H](C)O2)[C@H](C)[C@@H](O[C@@H]2O[C@H](C)C[C@H](N(C)C)[C@H]2O)[C@](C)(O)C[C@@H](C)CN(C)[C@H](C)[C@@H](O)[C@]1(C)O [azithromycin, reference compound] | 36% | 0% | 6% | 20% | 0% | 64% | 15% | 0% | 20% | 40% | 0% | 75% | 0% | 0% | 0% | 0% | 0% | 0% | 0% | 0% | inhibition at 10 µM ([2]; PHA): 5%; inhibition at 50 µM ([2]; PHA): 29%; inhibition at 10 µM ([2]; PMA + iono.): 9%; inhibition at 50 µM ([2]; PMA + iono.): 31%; inhibition in vivo at 10 mg/kg (TNF-α [3]): 54%; inhibition at 10 µM (IL-1α; LPS-stimulated PBL): 28%; inhibition at 10 µM (IL-1α; PMA-stimulated PBL): 0%; inhibition at 10 µM (IL-1α; zymosan-stimulated PBL): 20%; inhibition at 50 µM (IL-1α; LPS-stimulated PBL): 48%; inhibition at 50 µM (IL-1α; PMA-stimulated PBL): 0%; inhibition at 50 µM (IL-1α; zymosan-stimulated PBL): 75%; Percentage of inhibition of cell growth (Hep G2; 12.5 μM): 0%; Percentage of inhibition of cell growth (Hep G2; 50 μM): 0% |
| CC[C@H]1OC(=O)[C@H](C)[C@@H](O[C@H]2C[C@@](C)(OC)[C@@H](O)[C@H](C)O2)[C@H](C)[C@@H](O[C@@H]2O[C@H](C)C[C@H](N(C)C)[C@H]2O)[C@](C)(OC)C[C@@H](C)C(=O)[C@H](C)[C@@H](O)[C@]1(C)O [clarithromycin, reference compound] | 0% | 0% | 0% | 0% | 0% | 0% | 11% | 0% | 28% | 0% | 0% | 0% | 0% | 0% | 23% | 33% | 0% | 0% | 0% | 0% | inhibition at 10 µM ([2]; PHA): 0%; inhibition at 50 µM ([2]; PHA): 7%; inhibition at 10 µM ([2]; PMA + iono.): 9%; inhibition at 50 µM ([2]; PMA + iono.): 14%; inhibition in vivo at 10 mg/kg (TNF-α [3]): 63%; inhibition at 10 µM (IL-1α; LPS-stimulated PBL): 0%; inhibition at 10 µM (IL-1α; PMA-stimulated PBL): 26%; inhibition at 10 µM (IL-1α; zymosan-stimulated PBL): 36%; inhibition at 50 µM (IL-1α; LPS-stimulated PBL): 0%; inhibition at 50 µM (IL-1α; PMA-stimulated PBL): 33%; inhibition at 50 µM (IL-1α; zymosan-stimulated PBL): 59%; Percentage of inhibition of cell growth (Hep G2; 12.5 μM): 0%; Percentage of inhibition of cell growth (Hep G2; 50 μM): 0% |
| CC[C@H]1OC(=O)[C@H](C)[C@@H](O[C@H]2C[C@@](C)(OC)[C@@H](OC(=O)CCN3CCN(CCN(C)C)CC3)[C@H](C)O2)[C@H](C)[C@@H](O[C@@H]2O[C@H](C)C[C@H](N(C)C)[C@H]2O)[C@](C)(OC)C[C@@H](C)C(=O)N[C@H](C)[C@@H](O)[C@]1(C)O [Example 17] | 13% | 46% | 30% | 21% | 67% | 46% | 9% | 37% | 33% | 14% | 55% | 60% | 5% | 2% | 4% | 21% | 20% | 6% | 13% | 13% | inhibition at 10 µM ([2]; PHA): 0%; inhibition at 50 µM ([2]; PHA): 70%; inhibition at 10 µM ([2]; PMA + iono.): 3%; inhibition at 50 µM ([2]; PMA + iono.): 49%; inhibition in vivo at 10 mg/kg (TNF-α [3]): 84%; inhibition at 10 µM (IL-1α; LPS-stimulated PBL): 25%; inhibition at 10 µM (IL-1α; PMA-stimulated PBL): 55%; inhibition at 10 µM (IL-1α; zymosan-stimulated PBL): 58%; inhibition at 50 µM (IL-1α; LPS-stimulated PBL): 44%; inhibition at 50 µM (IL-1α; PMA-stimulated PBL): 75%; inhibition at 50 µM (IL-1α; zymosan-stimulated PBL): 90%; Percentage of inhibition of cell growth (Hep G2; 12.5 μM): 5%; Percentage of inhibition of cell growth (Hep G2; 50 μM): 2% |
| CC[C@H]1OC(=O)[C@H](C)C(O[C@H]2C[C@@](C)(OC)[C@@H](OC(=O)CCN(CC)CC)[C@H](C)O2)[C@H](C)[C@@H](O[C@@H]2O[C@H](C)C[C@H](N(C)C)[C@H]2O)[C@](C)(OC)C[C@@H](C)C(=O)[C@H](C)[C@H](O)[C@]1(C)O (stereo partly drawn) [Example 49, 4″-O-(3-Diethylamino-propionyl)-6-O-methylerithromycin A] | 69% | 37% | 70% | 91% | 86% | 93% | 70% | 76% | 76% | 99% | 86% | 97% | 0% | 6% | 44% | 0% | 15% | 86% | 95% | 54% | inhibition at 10 µM ([2]; PHA): 44%; inhibition at 50 µM ([2]; PHA): 99%; inhibition at 10 µM ([2]; PMA + iono.): 24%; inhibition at 50 µM ([2]; PMA + iono.): 100%; inhibition in vivo at 10 mg/kg (TNF-α [3]): 43%; inhibition at 10 µM (IL-1α; LPS-stimulated PBL): 84%; inhibition at 10 µM (IL-1α; PMA-stimulated PBL): 35%; inhibition at 10 µM (IL-1α; zymosan-stimulated PBL): 76%; inhibition at 50 µM (IL-1α; LPS-stimulated PBL): 86%; inhibition at 50 µM (IL-1α; PMA-stimulated PBL): 84%; inhibition at 50 µM (IL-1α; zymosan-stimulated PBL): 25%; Percentage of inhibition of cell growth (Hep G2; 12.5 μM): 5%; Percentage of inhibition of cell growth (Hep G2; 50 μM): 26% |
